Measured values from patent US12497365B2, “4-pyridinyl formamide compound or derivative thereof, preparation method therefor, herbicidal composition and use thereof” (Qingdao Kingagroot Chemical Compound Co., Ltd., priority 2019, dated 2025).

What was measured:
Assay in all cases: Weeding effect in post-emergence stage
Format in all cases: in vivo
Conditions in all cases: active ingredient 2000 g/ha, 3 weeks after application, fresh weight control rate
[1] = tested on: Amaranthus retroflexus L.
Summary of the method: (§1)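 Greenhouse-grown weeds at the 2-3 leaf stage, about 2 weeks after sowing, were sprayed with compound at 2000-125 g/ha. The spray solution was made from acetone with Tween 80 and 1.5 L/ha methyl oleate concentrate as synergist. Fresh-weight growth control was scored 3 weeks after treatment.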

Chenopodium album = tested on: Chenopodium album
Summary of the method: as §1

Abutilon theophrasti = tested on: Abutilon theophrasti
Summary of the method: as §1

Descurainia sophia = tested on: Descurainia sophia
Summary of the method: as §1

Cn1nnnc1NC(=O)c1ccnc(-c2cccnc2)c1Cl [Compound 1-124] was tested, and the “Weeding effect, activity level (growth control rate), Amaranthus retroflexus L.” value (shortened to “Weeding effect … Amaranthus retroflexus L.”) [1] was 5 (Level 5: growth control rate is above 85%), the “Weeding effect, activity level (growth control rate), Chenopodium album” value (“Weeding effect … Chenopodium album” below) (Chenopodium album) was 5 (Level 5: growth control rate is above 85%) and the “Weeding effect, activity level (growth control rate), Abutilon theophrasti” value (from here on “Weeding effect … Abutilon theophrasti”) (Abutilon theophrasti) was 5 (Level 5: growth control rate is above 85%). The “Weeding effect, activity level (growth control rate), Descurainia sophia” value (from here on “Weeding effect … Descurainia sophia”) (Descurainia sophia) was 5 (Level 5: growth control rate is above 85%).
Cc1ccncc1-c1nccc(C(=O)Nc2nnnn2C)c1Cl [Compound 1-125] was tested, and the “Weeding effect … Amaranthus retroflexus L.” value [1] was 5 (Level 5: growth control rate is above 85%), the “Weeding effect … Chenopodium album” value (Chenopodium album) was 5 (Level 5: growth control rate is above 85%) and the “Weeding effect … Abutilon theophrasti” value (Abutilon theophrasti) was 5 (Level 5: growth control rate is above 85%). For the same compound, the “Weeding effect … Descurainia sophia” value (Descurainia sophia) was 5 (Level 5: growth control rate is above 85%).
In the case of Cc1cncc(-c2nccc(C(=O)Nc3nnnn3C)c2Cl)c1 [Compound 1-126], the “Weeding effect … Amaranthus retroflexus L.” value [1] was 5 (Level 5: growth control rate is above 85%), the “Weeding effect … Chenopodium album” value (Chenopodium album) was 5 (Level 5: growth control rate is above 85%) and the “Weeding effect … Abutilon theophrasti” value (Abutilon theophrasti) was 5 (Level 5: growth control rate is above 85%). For the same compound, the “Weeding effect … Descurainia sophia” value (Descurainia sophia) was 5 (Level 5: growth control rate is above 85%).
For Cn1nnnc1NC(=O)c1ccnc(-c2cccnc2F)c1Cl [Compound 1-127], the “Weeding effect … Amaranthus retroflexus L.” value [1] was 5 (Level 5: growth control rate is above 85%), the “Weeding effect … Chenopodium album” value (Chenopodium album) was 5 (Level 5: growth control rate is above 85%) and the “Weeding effect … Abutilon theophrasti” value (Abutilon theophrasti) was 5 (Level 5: growth control rate is above 85%). For the same compound, the “Weeding effect … Descurainia sophia” value (Descurainia sophia) was 5 (Level 5: growth control rate is above 85%).
With Cn1nnnc1NC(=O)c1ccnc(-c2cncc(F)c2)c1Cl [Compound 1-128] the “Weeding effect … Amaranthus retroflexus L.” value [1] was 5 (Level 5: growth control rate is above 85%), the “Weeding effect … Chenopodium album” value (Chenopodium album) was 5 (Level 5: growth control rate is above 85%) and the “Weeding effect … Abutilon theophrasti” value (Abutilon theophrasti) was 5 (Level 5: growth control rate is above 85%). The “Weeding effect … Descurainia sophia” value (Descurainia sophia) was 5 (Level 5: growth control rate is above 85%).
With Cn1nnnc1NC(=O)c1ccnc(-c2ccc(Cl)nc2)c1Cl [Compound 1-129] the “Weeding effect … Amaranthus retroflexus L.” value [1] was 5 (Level 5: growth control rate is above 85%), the “Weeding effect … Chenopodium album” value (Chenopodium album) was 5 (Level 5: growth control rate is above 85%) and the “Weeding effect … Abutilon theophrasti” value (Abutilon theophrasti) was 5 (Level 5: growth control rate is above 85%). The “Weeding effect … Descurainia sophia” value (Descurainia sophia) was 5 (Level 5: growth control rate is above 85%).
With Cn1nnnc1NC(=O)c1ccnc(-c2cccnc2Cl)c1Cl [Compound 1-130] the “Weeding effect … Amaranthus retroflexus L.” value [1] was 5 (Level 5: growth control rate is above 85%), the “Weeding effect … Chenopodium album” value (Chenopodium album) was 5 (Level 5: growth control rate is above 85%) and the “Weeding effect … Abutilon theophrasti” value (Abutilon theophrasti) was 5 (Level 5: growth control rate is above 85%). For the same compound, the “Weeding effect … Descurainia sophia” value (Descurainia sophia) was 5 (Level 5: growth control rate is above 85%).
In the case of Cn1nnnc1NC(=O)c1ccnc(-c2ccc(Br)nc2)c1Cl [Compound 1-131], the “Weeding effect … Amaranthus retroflexus L.” value [1] was 5 (Level 5: growth control rate is above 85%), the “Weeding effect … Chenopodium album” value (Chenopodium album) was 5 (Level 5: growth control rate is above 85%) and the “Weeding effect … Abutilon theophrasti” value (Abutilon theophrasti) was 5 (Level 5: growth control rate is above 85%). The “Weeding effect … Descurainia sophia” value (Descurainia sophia) was 5 (Level 5: growth control rate is above 85%).
For Cn1nnnc1NC(=O)c1ccnc(-c2ccc(F)nc2)c1Cl [Compound 1-132], the “Weeding effect … Amaranthus retroflexus L.” value [1] was 5 (Level 5: growth control rate is above 85%), the “Weeding effect … Chenopodium album” value (Chenopodium album) was 5 (Level 5: growth control rate is above 85%) and the “Weeding effect … Abutilon theophrasti” value (Abutilon theophrasti) was 5 (Level 5: growth control rate is above 85%). The “Weeding effect … Descurainia sophia” value (Descurainia sophia) was 5 (Level 5: growth control rate is above 85%).
For Cn1nnnc1NC(=O)c1ccnc(-c2cncc(C#N)c2)c1Cl [Compound 1-133], the “Weeding effect … Amaranthus retroflexus L.” value [1] was 5 (Level 5: growth control rate is above 85%), the “Weeding effect … Chenopodium album” value (Chenopodium album) was 5 (Level 5: growth control rate is above 85%) and the “Weeding effect … Abutilon theophrasti” value (Abutilon theophrasti) was 5 (Level 5: growth control rate is above 85%). For the same compound, the “Weeding effect … Descurainia sophia” value (Descurainia sophia) was 5 (Level 5: growth control rate is above 85%).
Cn1nnnc1NC(=O)c1ccnc(-c2ccc(C#N)nc2)c1Cl [Compound 1-134] was tested, and the “Weeding effect … Amaranthus retroflexus L.” value [1] was 5 (Level 5: growth control rate is above 85%), the “Weeding effect … Chenopodium album” value (Chenopodium album) was 5 (Level 5: growth control rate is above 85%) and the “Weeding effect … Abutilon theophrasti” value (Abutilon theophrasti) was 5 (Level 5: growth control rate is above 85%). The “Weeding effect … Descurainia sophia” value (Descurainia sophia) was 5 (Level 5: growth control rate is above 85%).
With Cn1nnnc1NC(=O)c1ccnc(-c2ccc(F)nc2F)c1Cl [Compound 1-135] the “Weeding effect … Amaranthus retroflexus L.” value [1] was 5 (Level 5: growth control rate is above 85%), the “Weeding effect … Chenopodium album” value (Chenopodium album) was 5 (Level 5: growth control rate is above 85%) and the “Weeding effect … Abutilon theophrasti” value (Abutilon theophrasti) was 5 (Level 5: growth control rate is above 85%). For the same compound, the “Weeding effect … Descurainia sophia” value (Descurainia sophia) was 5 (Level 5: growth control rate is above 85%).
Cc1cc(F)ncc1-c1nccc(C(=O)Nc2nnnn2C)c1Cl [Compound 1-136] was tested, and the “Weeding effect … Amaranthus retroflexus L.” value [1] was 5 (Level 5: growth control rate is above 85%), the “Weeding effect … Chenopodium album” value (Chenopodium album) was 5 (Level 5: growth control rate is above 85%) and the “Weeding effect … Abutilon theophrasti” value (Abutilon theophrasti) was 5 (Level 5: growth control rate is above 85%). The “Weeding effect … Descurainia sophia” value (Descurainia sophia) was 5 (Level 5: growth control rate is above 85%).
Cc1nc(F)ccc1-c1nccc(C(=O)Nc2nnnn2C)c1Cl [Compound 1-137] was tested, and the “Weeding effect … Amaranthus retroflexus L.” value [1] was 5 (Level 5: growth control rate is above 85%), the “Weeding effect … Chenopodium album” value (Chenopodium album) was 5 (Level 5: growth control rate is above 85%) and the “Weeding effect … Abutilon theophrasti” value (Abutilon theophrasti) was 5 (Level 5: growth control rate is above 85%). For the same compound, the “Weeding effect … Descurainia sophia” value (Descurainia sophia) was 5 (Level 5: growth control rate is above 85%).
With Cc1cc(Cl)ncc1-c1nccc(C(=O)Nc2nnnn2C)c1Cl [Compound 1-138] the “Weeding effect … Amaranthus retroflexus L.” value [1] was 5 (Level 5: growth control rate is above 85%), the “Weeding effect … Chenopodium album” value (Chenopodium album) was 5 (Level 5: growth control rate is above 85%) and the “Weeding effect … Abutilon theophrasti” value (Abutilon theophrasti) was 5 (Level 5: growth control rate is above 85%). The “Weeding effect … Descurainia sophia” value (Descurainia sophia) was 5 (Level 5: growth control rate is above 85%).
Cn1nnnc1NC(=O)c1ccnc(-c2ccc(Cl)nc2Cl)c1Cl [Compound 1-139] was tested, and the “Weeding effect … Amaranthus retroflexus L.” value [1] was 5 (Level 5: growth control rate is above 85%), the “Weeding effect … Chenopodium album” value (Chenopodium album) was 5 (Level 5: growth control rate is above 85%) and the “Weeding effect … Abutilon theophrasti” value (Abutilon theophrasti) was 5 (Level 5: growth control rate is above 85%). The “Weeding effect … Descurainia sophia” value (Descurainia sophia) was 5 (Level 5: growth control rate is above 85%).
In the case of Cn1nnnc1NC(=O)c1ccnc(-c2ccc(Br)nc2F)c1Cl [Compound 1-140], the “Weeding effect … Amaranthus retroflexus L.” value [1] was 5 (Level 5: growth control rate is above 85%), the “Weeding effect … Chenopodium album” value (Chenopodium album) was 5 (Level 5: growth control rate is above 85%) and the “Weeding effect … Abutilon theophrasti” value (Abutilon theophrasti) was 5 (Level 5: growth control rate is above 85%). For the same compound, the “Weeding effect … Descurainia sophia” value (Descurainia sophia) was 5 (Level 5: growth control rate is above 85%).
In the case of Cn1nnnc1NC(=O)c1ccnc(-c2cccnc2C(F)(F)F)c1Cl [Compound 1-141], the “Weeding effect … Amaranthus retroflexus L.” value [1] was 5 (Level 5: growth control rate is above 85%), the “Weeding effect … Chenopodium album” value (Chenopodium album) was 5 (Level 5: growth control rate is above 85%) and the “Weeding effect … Abutilon theophrasti” value (Abutilon theophrasti) was 5 (Level 5: growth control rate is above 85%). For the same compound, the “Weeding effect … Descurainia sophia” value (Descurainia sophia) was 5 (Level 5: growth control rate is above 85%).
With Cn1nnnc1NC(=O)c1ccnc(-c2ccc(C(F)(F)F)nc2)c1Cl [Compound 1-142] the “Weeding effect … Amaranthus retroflexus L.” value [1] was 5 (Level 5: growth control rate is above 85%), the “Weeding effect … Chenopodium album” value (Chenopodium album) was 5 (Level 5: growth control rate is above 85%) and the “Weeding effect … Abutilon theophrasti” value (Abutilon theophrasti) was 5 (Level 5: growth control rate is above 85%). For the same compound, the “Weeding effect … Descurainia sophia” value (Descurainia sophia) was 5 (Level 5: growth control rate is above 85%).
For COc1ccc(-c2nccc(C(=O)Nc3nnnn3C)c2Cl)cn1 [Compound 1-143], the “Weeding effect … Amaranthus retroflexus L.” value [1] was 5 (Level 5: growth control rate is above 85%), the “Weeding effect … Chenopodium album” value (Chenopodium album) was 5 (Level 5: growth control rate is above 85%) and the “Weeding effect … Abutilon theophrasti” value (Abutilon theophrasti) was 5 (Level 5: growth control rate is above 85%). For the same compound, the “Weeding effect … Descurainia sophia” value (Descurainia sophia) was 5 (Level 5: growth control rate is above 85%).
In the case of CCOc1ccc(-c2nccc(C(=O)Nc3nnnn3C)c2Cl)cn1 [Compound 1-144], the “Weeding effect … Amaranthus retroflexus L.” value [1] was 5 (Level 5: growth control rate is above 85%), the “Weeding effect … Chenopodium album” value (Chenopodium album) was 5 (Level 5: growth control rate is above 85%) and the “Weeding effect … Abutilon theophrasti” value (Abutilon theophrasti) was 5 (Level 5: growth control rate is above 85%). The “Weeding effect … Descurainia sophia” value (Descurainia sophia) was 5 (Level 5: growth control rate is above 85%).
For Cn1nnnc1NC(=O)c1ccnc(-c2cncc(N)c2)c1Cl [Compound 1-145], the “Weeding effect … Amaranthus retroflexus L.” value [1] was 5 (Level 5: growth control rate is above 85%), the “Weeding effect … Chenopodium album” value (Chenopodium album) was 5 (Level 5: growth control rate is above 85%) and the “Weeding effect … Abutilon theophrasti” value (Abutilon theophrasti) was 5 (Level 5: growth control rate is above 85%). For the same compound, the “Weeding effect … Descurainia sophia” value (Descurainia sophia) was 5 (Level 5: growth control rate is above 85%).
